Measurements: a melting point compilation (Tetko et al.; mined from patent text by program, amines drawn as free bases though some values may be those of a salt)

Row | SMILES | melting point [°C]
1 | COc1cc(OCCN2CCc3ccccc3C2)ccc1C=NNC(=O)c1ccc(O)c(N)c1 | 162 to 164
2 | Cc1cccc(C)c1NC(=O)/C=C1\SCC(=O)N1c1ccccc1 | 228
3 | C=CCN(CC=C)c1ccc(NCCO)cc1[N+](=O)[O-] | 166 to 170
4 | CCCCN(CCCC)CCCOc1ccc(S(=O)(=O)c2c(C(C)(C)C)cn3ccccc23)cc1 | 90 to 92
5 | COc1ccc(C2CNC(=O)C2)cc1OCCN1CCN(c2ccccc2)CC1 (centres undefined) | 140 to 141
6 | OC[C@@H](OCc1ccccc1)[C@@H](O)[C@H](O)[C@@H](CO)OCc1ccccc1 | 116 to 117
7 | O=C1COc2ccc(C3=Cc4cc(F)ccc4SC3c3ccc(F)cc3)cc2N1 (centres undefined) | 191 to 192
8 | N#CCCNC(=O)c1cccc(-c2ccc3ccn(-c4ccc(Cl)cc4Cl)c3n2)c1 | 215 to 216
9 | O=C(CI)Nc1ccc(C(=O)O)cc1 | 194 to 196
10 | O=C1Nc2cc(F)ccc2Oc2ccccc21 | 228 to 229
11 | Cc1cc(F)ccc1-c1ccc(S(=O)(=O)N2c3ccccc3CC2C(=O)NCc2ccc(CC(=O)O)cc2)cc1 (centres undefined) | 95 to 100
12 | Cn1ccnc1CCNS(=O)(=O)c1ccccc1[N+](=O)[O-] | 193 to 199
13 | CCCCOC(=O)C=CCOc1ccc(F)c(C(N)=O)c1F | < 40
14 | O=C(O)c1cnc2oc(C(=O)O)cc2c1 | > 315
15 | COc1ccc(/C=C(\C#N)c2ccc(Cl)c(Cl)c2)cc1OC1CCCC1 | 152 to 154
16 | CCCCCCCCCCCCCCCCc1ccc(S(=O)(=O)Cl)cc1 | 35 to 36
17 | CCSc1nc2nsc(N)c2s1 | 131 to 134
18 | CON=C(C(=O)OC)c1ccccc1C#CC(=O)c1ccccc1 | 89 to 94
19 | Cc1ccc(C2=NNC(=O)CC2)c(OCC(O)CNC(C)(C)C)c1 (centres undefined) | 130
20 | C[C@H]1Cn2c(=O)[nH]c3c(Br)ccc(c32)CN1C(=O)OC(C)(C)C | 229
21 | N#CC(=Cc1ccsc1)C(=O)O | 211
22 | Cc1cc(C)c2nc(C3CC3)n(Cc3ccc(C4(C(=O)O)CC=CC4)s3)c2n1 | 184 to 185
23 | CC(C)COc1c(C2CCN(CCCCNC(=O)c3ccc(-c4ccc(C(F)(F)F)cc4)cc3)CC2)ccc2c1CCCC2 | 165

Row | SMILES | melting point [°C]
24 | COC1=CC(OC)OC(C)C1=O (centres undefined) | 73 to 74.5
25 | C(=C\c1ccoc1)/c1ccccc1 | 96
26 | Cc1cc2c(c(C)c1O)C(C)CN2C(=O)C(C)(C)C (centres undefined) | 144 to 145
27 | COc1cc(-c2c(Cl)c(CNC(C)(C)C)nc3sc4c(c23)CCN(C(=O)c2ccccc2)C4)ccc1OC(C)C | 165 to 166
28 | CC(C)(C)OC(=O)C(Br)=CC1C(C(=O)O)C1(C)C (centres undefined) | 76
29 | CC(N=Cc1ccc(O)cc1)c1ccc([N+](=O)[O-])cc1 (single isomer, unassigned; (-)) | 118 to 120
30 | C#Cc1cn(-c2c(Cl)cc(OC(F)(F)F)cc2Cl)nc1C#N | 95.2 to 96
31 | CN1CCN(c2cc3c(cc2F)c(=O)n(O)c(=O)n3-c2ccc(F)c(Cl)c2)CC1 | 197 to 199
32 | CC(NC(=O)Cc1cc(F)cc(F)c1)C(=O)NC1C(=O)NCc2cc(Cc3ccccc3)ccc21 (centres undefined) | 159 to 166
33 | CCCCc1nc2c(N)nc3ccccc3c2n1CC(C)(C)OCCS(C)(=O)=O | 196 to 198
34 | c1cc(COc2cccc(-c3nnn[nH]3)c2)cc(OCc2ccc3ccccc3n2)c1 | 169 to 172
35 | CCNC(=O)N1c2ccccc2CCC1CN1CCN(c2cccc3[nH]ccc23)CC1 (centres undefined) | 109 to 112
36 | CC1(C)N=C(n2nc(O)ccc2=O)c2cc(Br)ccc2O1 | 196 to 198
37 | CCCCCCC(C)(C)c1cc(OCc2ccccc2)c2c(c1)OC(C)(C)CC2=O | 52 to 52.5
38 | CC(C)C(NS(=O)(=O)c1ccccc1)C(=O)NOCc1ccccc1 (centres undefined) | 163 to 165
39 | CCOC(=O)c1c(O)c2cccnc2n(C)c1=O | 158 to 160
40 | COCCOc1cc(OC)c2c(=O)[nH]c(-c3ccnc(C)c3)nc2c1 | 260 to 262
41 | CC(C)c1cccc(NC(=O)c2ccccc2[N+](=O)[O-])c1 | 65.5 to 68.5
42 | Cc1cccc(Nc2cc(Cl)nc(SCC(=O)NN)n2)c1C | 185 to 189
43 | CC(=O)NCCCC(=O)c1ccc(Cl)cc1CCC(=O)NCC(=O)O | 88 to 89
44 | CC1CC(=O)NN=C1c1ccc(N2CCNCC2)c(F)c1 (centres undefined) | 172 to 174
45 | CN(C)C1CC2=CNC=C3C=C(C#N)OCC1=C32 (centres undefined) | 205 to 207
46 | Nc1nc2c(s1)C(=O)CCC2 | 259 to 262

Row | SMILES | melting point [°C]
47 | N#Cc1ccc(-c2cccc3cncn23)cc1 | 117 to 118
48 | O=C(OCc1ccccc1)c1ccc(OC(=O)c2ccc(O)cc2)cc1 | 137 to 138
49 | COc1cc2c3c(c1)c(Cl)c(C(=O)N1CCc4ccccc41)c(=O)n3CCO2 | 158 to 160
50 | COc1cc(OC)cc(C(=O)N2CCc3cc(O)ccc3C2)c1 | 170 to 171
51 | O=C(CC(=O)C1CC1)c1ccc(S(F)(F)(F)(F)F)cc1 | 70 to 72
52 | O=C1C=C(NC(=O)C(=O)c2cn(Cc3cccc(Cl)c3)c3ccccc23)CO1 | 268 to 270
53 | Nc1ccc(NC(=O)c2ccc(N)cc2O)cc1 | 235 to 238
54 | c1ccc2nc(CSc3nc4cccc5c4n3CCC5)ccc2c1 | 125 to 126
55 | Nc1ccc(Oc2ccc3sncc3c2)cc1 | 100
56 | CCCOC(=O)c1cc(-c2ccc(Cl)cc2)cnc1C | 54 to 57
57 | O=C(Cc1cc(C(F)(F)F)cc(C(F)(F)F)c1)N1CCN(C(=O)CNC2CCN(Cc3ccccc3)CC2)C(c2ccccc2)C1 (centres undefined) | 49 to 52
58 | CC(=O)OC1CCC2(C)C(=CCC3C2CCC2(C)C(C(C)CCC(OC(C)=O)C(C)(C)OC(C)=O)CCC32)C1 (centres undefined) | 121 to 122
59 | Cc1onc(-c2ccccc2)c1-c1ccc(S(=O)(=O)NC(=O)CN)cc1 | 231 to 235
60 | O=C1O[C@@H](CO)CN1c1cccc(F)c1 | 106 to 108
61 | Cc1cc(N2CC=CCC2)nn2cnnc12 | 103 to 106
62 | COC(=O)Nc1ccc(CCc2cc(OC)ccc2OC)cc1C(=O)OC | 80 to 82
63 | CC#CCNC(=C[N+](=O)[O-])NCCSCc1[nH]cnc1C | 148 to 151
64 | O=C(CNc1ccc(O)cc1)N1CCC(Cc2ccc(F)cc2)CC1 | 155 to 157
65 | O=C1CCC(c2ccc(-n3cnc4ccccc43)cc2)=NN1 | 262 to 264
66 | O=S1(=O)c2cccc3cccc(c23)N1CCN1CCC(CC2Cc3ccccc3C2)CC1 | 126
67 | CC(C)(C)C(O)C(CS(=O)(=O)c1ccccc1)n1cncn1 (centres undefined) | 145

The remaining lines, values ahead:

Row | melting point [°C] | SMILES
68 | 82 | CN(C)CCC1=Cc2ccccc2N(C)c2ccc(Cl)cc21
69 | 146 to 147 | COc1cc(F)ccc1Oc1c(Cl)ncnc1NS(=O)(=O)c1ccc(C(C)(C)C)cc1
70 | 218 to 221 | Cc1nc(S(=O)(=O)N(C(=O)c2ccccc2)c2c(F)cccc2F)nn1-c1ncccn1
71 | 161 to 162 | COc1ccc(CN2C(=O)C3(COc4cc5c(cc43)OCCO5)c3ccccc32)cn1 (centres undefined)
72 | 164 to 165 | COc1cc(OC)c(N2CCCC2)cc1/C=C/C(=O)c1ccc(S(=O)(=O)Nc2cc(C)on2)cc1
73 | 152 to 154 | CCOC(=O)NN(CCO)c1ccc(-c2ccc(Cl)cc2)nn1
74 | 178 to 180 | COc1ccc(C(=O)Nc2ccc(C)cc2)cc1NC(=S)Nc1cc(Cl)cc(Cl)c1
75 | 184 to 185 | CNC(=S)n1ncnc1N
76 | 117 to 120 | O=C(O)c1cc(Cl)cc(Cl)c1OC1CCOC1=O (centres undefined)
77 | 221 to 223 | CN1CCN(Cc2ccc(NC(=O)n3ccc4cc(Oc5cc(CC(N)=O)ncn5)ccc43)cc2C(F)(F)F)CC1
78 | 162 | CC(=O)C(CCS(C)(=O)=O)(CCS(C)(=O)=O)C(C)=O
79 | 240 to 250 | C[C@@H](NC(=O)c1c[nH]c2ncc(-c3nn(CCCO)c4cc(Cl)ccc34)nc12)C(=O)N1CC(C#N)C1
80 | 288 | CC1Cc2cc3c(cc2C(c2ccc([N+](=O)[O-])cc2)=NN1c1n[nH]c(=O)s1)OCO3 (centres undefined)
81 | 303 to 307 | O=c1c2c(Cc3ccccc3)n[nH]c2c2ccncc2n1-c1ccccc1
82 | 156 to 157 | CC(n1cncn1)C(O)(Cn1cncn1)c1ccc(Cl)cn1 (centres undefined)
83 | 199 to 200 | Oc1ccc(CCc2ccc(O)cc2)cc1

Row | melting point [°C] | SMILES
84 | 170 to 174 | COc1ccccc1-n1cc(-c2ccccc2)c(OCC(=O)O)n1
85 | 216 to 217 | Cc1sc(C(=O)OCc2ccc3c(c2)OCO3)cc1NC(=O)NCc1ccccc1
86 | 202 to 203 | COc1cc(OC)c2c(=O)[nH]c(-c3ccc(OCCNC(C)C)c(-c4ccc(S(C)(=O)=O)cc4C)n3)nc2c1
87 | 148 to 151 | O=C(NC1CCCc2c(O)cccc21)c1cccc(Cl)c1O (centres undefined)
88 | 194 to 196 | COC(=O)c1ccc(Nc2nccc(-c3ccncc3)n2)cc1
89 | 170 to 172 | N#Cc1c2c(c3c(c1N1CCCCC1)CCc1ccccc1-3)-c1ccccc1C2
90 | 119 to 121 | O=C(O)/C(=C/C1CCCCC1)c1ccc(F)c(F)c1
91 | 140 to 142 | CC(=O)OCC1OC(n2c(Cl)nc3cc(Br)c(Br)cc32)C(OC(C)=O)C1OC(C)=O (centres undefined)
92 | 183 to 186 | O=C(O)C(=O)c1ccc(OCCCn2c(=O)ccc3ccccc32)cc1
93 | 218 to 220 | CC(C)(C)c1cc(CCC2(CCc3cc(C(C)(C)C)c(O)c(C(C)(C)C)c3)NC(=O)NC2=O)cc(C(C)(C)C)c1O
94 | > 70 | CC(=O)Nc1cc2c(cc1Br)C(Nc1ccc(C(=O)OC(C)(C)C)c(F)c1)CC2 (centres undefined)
95 | 258 to 260 | O=C1c2ccccc2C(=O)c2c(O)c(S(=O)(=O)c3ccccc3)cc(O)c21
96 | 222 to 224 | CC(Oc1ncn(-c2ccc(Cl)c(Cl)c2)n1)C(=O)O (centres undefined)
97 | 84 to 85 | O=C(Cc1ccccc1)c1ccc(Cl)c(Cl)c1
98 | 266 to 267 | O=C1C(=O)c2ccccc2C2=C1SCC1(CCC(NC(=O)c3cccc(C(F)(F)F)c3)CC1)O2 (centres undefined)
99 | 205 to 207 | O=C1CCC(n2cnc(-c3ccc(F)cc3)c2-c2ccnc(Nc3ccccc3)n2)CC1
